Earlier results, collected in patent US9072754B2, “Process for obtaining non-allergic propolis” (MR. GIUSEPPE MARIA RICCHIUTO, priority 2010, dated 2015).

Conditions: among the compounds of the LB-1 fraction of propolis; literature

allergenic effect: the most allergenic effect
SMILES: CC(C)=CCOC(=O)/C=C/c1ccc(O)c(O)c1 [3-methyl-2-butenyl-caffeate, 3-methyl-2-butenyl caffeate]
